According to patent US20220274938A1, “5-[(1S)-1-(4-BROMOPHENOXY)ETHYL]-2H-TETRAZOLE DERIVATIVES AND RELATED COMPOUNDS AS CLC-1 ION CHANNEL INHIBITORS FOR TREATING NEUROMUSCULAR DISORDERS” (NMD PHARMA A/S, priority 2019, published 2022):

Columns and labels:
[1] = test system: isolated rat soleus muscles; test: Measurement of force in an in vitro model: isolated rat soleus nerve-muscle preparation with tubocurarine; type: cell-based; conditions: Rattus norvegicus, 40 min; 50 μM test compound, after 40 mins of compound exposure; 115 nM tubocurarine for 90 mins; read-out: Point increase (%) of initial force that was restored
Experimental: FIG. 2. […] Force traces from a representative muscle stimulated to contract in 1) control condition before addition of neuromuscular blocking agent, 2) the force response to stimulation after 90 minutes incubation with Tubocurarine. […] The traces presented in panel A (1, 2, 3), correspond to the dotted lines in panel B, respectively.
Recovery of force is quantified as the percentage of the force prior to tubocurarine that is recovered by the compound.
The current disclosure relates to compounds that inhibit CIC-1 ion channels and increase muscle excitability and thereby improve muscle function in clinical conditions where muscle activation is failing. Such conditions result in loss of contractile function of skeletal muscle, weakness and excessive fatigue. In this series of experiments the compounds were tested for their ability to restore contractile function of isolated rat muscle when the neuromuscular transmission had been compromised akin to neuromuscular disorders.
Experimentally, soleus muscles from 4-5 week old rats were isolated with the motor nerve remaining attached. The nerve-muscle preparations were mounted in experimental setups that enabled electrical stimulation of the motor nerve. Stimulation of the motor nerve led to activation of the muscle fibres and ensuing force production that was recorded. The nerve-muscle preparations were also in these experiments incubated in the standard Krebs Ringer (see example 5) and the solution was heated to 30° C. and continuously equilibrated with a mixture of 95% O2 and 5% CO2, pH˜7.4.
After mounting the nerve-muscle preparation in the experimental setup, the contractile function of the muscle was initially assessed under the control conditions (FIG. 2A). […] The experimental condition mimics the failing neuromuscular transmission in a range of neuromuscular disorders. After addition of tubocurarine the contractile force declined over the next 90 mins to 10-50% of the control force. 50 μM of the test compound was then added and the contractile force recovered despite the continued presence of tubocurarine. To quantify the ability of the compound to restore force the percentage of the initial force that was restored was determined after 40 mins of compound exposure (FIG. 2B) and the point increase is reported in Table 3.

[2] = target: T1, human CIC-1 channels (Homo sapiens, UniProt P35523); test: Automated patch-clamp on the human isoform of CIC-1 expressed in CHO cells; type: cell-based; conditions: compound added to the intracellular solution vs control cell patches, positive shift reflects inhibition
T1 construct: host or cells: CHO (Chinese hamster ovary) cells, cryopreserved, used directly after thawing
T1 sequence (P35523 whole entry, canonical isoform): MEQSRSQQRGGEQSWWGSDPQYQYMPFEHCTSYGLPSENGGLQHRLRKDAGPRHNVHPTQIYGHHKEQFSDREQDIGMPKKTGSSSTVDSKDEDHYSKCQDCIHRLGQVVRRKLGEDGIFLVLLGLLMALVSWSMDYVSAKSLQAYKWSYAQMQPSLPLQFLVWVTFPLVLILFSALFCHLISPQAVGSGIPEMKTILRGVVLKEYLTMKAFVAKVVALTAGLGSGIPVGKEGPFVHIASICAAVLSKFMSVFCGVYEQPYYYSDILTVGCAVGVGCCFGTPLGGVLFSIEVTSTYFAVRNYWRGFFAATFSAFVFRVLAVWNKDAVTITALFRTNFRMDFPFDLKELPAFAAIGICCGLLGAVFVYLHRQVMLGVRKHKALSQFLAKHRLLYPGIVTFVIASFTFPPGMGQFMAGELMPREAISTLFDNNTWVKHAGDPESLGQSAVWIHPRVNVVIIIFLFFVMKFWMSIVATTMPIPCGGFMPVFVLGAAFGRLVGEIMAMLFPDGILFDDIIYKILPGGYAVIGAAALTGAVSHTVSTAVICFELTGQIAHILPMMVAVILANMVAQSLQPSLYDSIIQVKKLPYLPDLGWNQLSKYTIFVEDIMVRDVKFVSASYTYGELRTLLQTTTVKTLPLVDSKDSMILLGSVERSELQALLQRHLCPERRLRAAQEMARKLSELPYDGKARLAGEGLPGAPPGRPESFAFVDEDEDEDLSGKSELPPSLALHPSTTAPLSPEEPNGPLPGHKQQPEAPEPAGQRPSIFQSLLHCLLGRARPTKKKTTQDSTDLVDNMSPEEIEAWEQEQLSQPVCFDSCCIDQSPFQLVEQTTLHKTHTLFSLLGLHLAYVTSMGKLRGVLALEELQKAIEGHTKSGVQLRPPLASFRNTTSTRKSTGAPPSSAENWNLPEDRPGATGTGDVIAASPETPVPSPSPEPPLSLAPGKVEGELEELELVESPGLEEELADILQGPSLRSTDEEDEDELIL
Experimental: The investigatory goal of these experiments was to evaluate how compounds affect the open probability and current amplitude of human CIC-1 channels expressed in CHO cells. Experiments were performed using an automated patch clamp system that allowed high throughput testing of whole cell patches together with both intracellular and extracellular addition of compound.
Automated whole cell patch clamp experiments were performed with the Qpatch 16 system (Sophion Bioscience, Ballerup, Denmark) at room temperature. Data acquisition and analysis were performed in the Qassay software (ver. 5.6, Odense).
To obtain tail currents, the membrane potential was stepped to −100 mV after each test voltage for 300 ms and then relaxed to −30 mV for 2 sec between sweeps (FIG. 3). I/V relationships for whole cell instant and steady state current amplitudes were obtained by plotting average current densities at the beginning and at the end of the 300 ms step against the membrane potential (FIG. 4).
In order to determine the relative overall open probability (Po), the instantaneous tail currents were normalized to the maximal tail current obtained following the most positive voltage step and plotted against the test voltage. Plots of normalized tail currents from each whole cell patch were then fitted to a Boltzmann function allowing determination of half activation voltages (V1/2, FIG. 5).
Osmolality adjusted to ˜320 using sucrose. Intracellular solutions contained: 80 mM CsF, 60 mM CsCl, 5/1 mM KOH/EGTA, 10 mM HEPES, 10 mM NaCl, pH adjusted to 7.2 with NaOH (2 M). Osmolality adjusted to ˜320 mOsm using sucrose.
Cells used in patch clamp experiments were Chinese hamster ovary cells (CHO) constitutively expressing human CIC-1 channels. The amino acid sequence encoded by the cDNA used to create this cell line was identical to the translated sequence for GenBank accession number NM_000083.2. Cells were produced by Charles River (Catalogue CT6175, Cleveland Ohio, USA) in a cryopreserved format. Experiments were performed on the cells directly after thawing (3×10^6 cells used in each experiment).
To evaluate the compound effect on CIC-1, when applied directly to the intracellular side of the cell membrane, the half activation voltage, V1/2, was determined from whole cell patches with compound added to the intracellular solution and then compared to V1/2 determined from control cell patches with only vehicle added to the intracellular solution. Additionally, the effect of extracellular added compound was evaluated by determine V1/2 and steady state current amplitudes before and after exchanging the extracellular solution to contain compound.
The difference in half activation voltage of CIC-1 channels, ΔV1/2, was determined as the difference between the cell patches treated intracellularly with compound and control cells patches and is reported in Table 4 below. A positive shift in ΔV1/2 is reflecting CIC-1 channel inhibition by the tested compound. P-values of <0.05 is considered significant.

| SMILES | activation at 50 µM [1] | ΔV1/2 (difference in half activation voltage of CIC-1 channels) [2] |
| --- | --- | --- |
| C[C@H](Oc1ccc(Cl)cc1)C(=O)NOC1CCC1 [Compound C-80, (2S)-2-(4-chlorophenoxy)-N-cyclobutoxypropanamide] | 47% | 9.9 mV |
| C[C@H](Oc1ccc(Br)cc1F)c1nn[nH]n1 [Compound E-8, 5-[(1S)-1-(4-bromo-2-fluorophenoxy)ethyl]-2H-1,2,3,4-tetrazole] | 34% | 38.4 mV |
